From patent US12133846B2, “Electrophilic androgen receptor (AR) antagonists for AR downregulation and ferroptosis induction in cancer cells” (priority 2019, dated 2024)

Experiments:
[1] = Polarity/water solubility by retention on C18 reversed-phase HPLC; format: physicochemical; settings: shorter retention time on C18 reversed-phase HPLC column
Method: NAC conjugate 2-63 gradually releases free ITC 12b under physiological condition. The NAC conjugate of ITC could reversibly form free ITCs in aqueous solution (Zhang, Y., Carcinogenesis 2012, 33, 2-9). To test this possibility on the setting of ITC-ARi, 2-63 (50 μM) was dissolved in PBS at physiological pH (7.4), and its decomposition was monitored at 37° C. using HPLC. […] 2-63, therefore, can be viewed as a more water-soluble prodrug of 12b when it is used in cell culture or administrated in vivo. This NAC conjugation approach avoids acute/instant electrophilic insult and can constrain the concentration of electrophilic ITC within certain levels. Since non-cancerous cells usually have a larger GSH/antioxidant pool to neutralize electrophilic/oxidative attack (Trachootham, et al., Cancer Cell 2006, 10, 241-252), different tolerability to 2-63 could be seen between cancerous and noncancerous cells.

VCaP cells = assay: MTT viability assay, VCaP cells; format: cell-based; settings: Homo sapiens, VCaP, 72 h, read-out: IC50, viability of VCaP cells
Text: (§1) Biological Characterization. ITC-ARi hybrid drugs effectively reduce the viability of PCa cells. By using an MTT assay, it was first examined if the newly synthesized hybrid drugs affect the viability of CRPC-relevant PCa cells. PCa VCaP cells naturally express abundant wild type FL AR as well as AR splice variants (e.g., AR-V7). These cells were, therefore, used as one of the cell culture models in this work to investigate the drug-caused viability loss and AR downregulation.

C4-2 cells [2] = assay: MTT viability assay, C4-2 cells; format: cell-based; settings: 5 μM, 72 h
Text: as §1

FL AR and AR-V7 = assay: Western blotting of FL AR and AR-V7 in VCaP cells; format: cell-based; settings: 10 μM, 12 h time course
Method: (§2) Western Blotting. […] Proteins in cell lysates (40 μg) were separated using electrophoresis on SDS-PAGE and transferred onto PVDF (polyvinylidenedifluoride) membranes. Membranes were blocked in 5% fat-free milk followed by incubation with primary antibodies overnight at 4° C., and the secondary horseradish peroxidase-conjugated anti-rabbit or anti-mouse antibodies. The blots were developed in the Enhanced Chemiluminescence mixture and detected by ImageQuant™ LAS 4000 imaging system (GE). Density of protein bonds were calculated and analyzed by using imageJ software downloaded from the National Institute of Health website.

[3] = test system: acetylation of α-tubulin and histone H3 (markers for HDAC6 and nuclear HDAC inhibition); assay: Western blotting of acetylation markers in VCaP cells; format: cell-based; settings: 16 h, 2-63 and 12b 5 and 15 μM, SAHA 1 μM
Method: as §2

Sp1 and c-Myc = assay: Western blotting of transcription factors in VCaP cells; format: cell-based; settings: 5.0 and 10 μM, 24 h
Method: FL AR is a client protein of Hsp90, and AR-V7 might be chaperoned by Hsps other than Hsp90 (Moses, et al., Cancer Res. 2018, 78, 4022-4035). Because Hsp70 upregulation is an indicator of heat shock protein disruption (Kitson, et al., Nat. Chem. 2013, 5, 307-314) that causes client protein degradation, it was assessed whether 2-63 could change the protein stability of AR and AR-V7. […] 2-63-induced AR/AR-V7 downregulation was partially rescued by the proteasome inhibitor MG-132 (data not shown). This supports the involvement of proteasome degradation in AR reduction. Besides the posttranslational mechanisms, AR downregulation could also be caused by suppressing transcription factors (TFs) that drive the transcription of the AR gene. Sp1 and c-Myc were selected as representatives that could be affected by 2-63. Multiple Sp1 binding sites are located near the transcriptional initiation region of the AR gene.
Western Blotting. […] The protein concentration of supernatants was determined using the Pierce BCA Protein Assay Kit (Thermo Fisher, Cat #23225). […] The blots were developed in the Enhanced Chemiluminescence mixture and detected by ImageQuant™ LAS 4000 imaging system (GE). Density of protein bonds were calculated and analyzed by using imageJ software downloaded from the National Institute of Health website.

AR-V7, Hsp70, HO-1 = assay: Western blotting under BSO combination, 22Rv1 cells; format: cell-based; settings: 2-63 2.5 μM plus BSO 100 μM, 24 h
Method: It was first investigated if iron chelators or antioxidants could rescue the viability of drug combination-treated cells. […] HO-1 catalyzes the decomposition of heme into carbon monoxide, biliverdin, and Fe^2+. […] Both Fer-1 and the lipophilic antioxidant α-Toc can effectively scavenge radicals in phosphatidylcholine lipid bilayers and break the redox cycle that generates lipid hydroperoxide.
as §2

C4-2 cells [4] = settings: 5 μM, DHT 1 nM, charcoal stripped FBS, 6 days
Method: The medium and drug were refreshed every two days.
The anti-PCa potential of 2-63 was further characterized by assessing its inhibitory effects on DHT-stimulated C4-2 cell growth. […] C4-2 cells were cultured in charcoal-stripped, steroid-free medium and cells were stimulated with androgen.

RWPE-1 cells = assay: BSO pretreatment plus 2-63, MTT viability, RWPE-1 cells; settings: BSO 100 μM plus 2-63 5 μM, 24 h
Method: Cell viability was then assessed using an MTT assay.
PCa cells (6×10^3 cells/well) were seeded into 96-well plates overnight and then treated with indicated compounds at indicated concentrations and time durations. The MTT (3-(4, 5-Dimethylthiazol-2-yl)-2,5-diphenyltetrazolium bromide) assay was performed according to the standard protocol. Briefly, MTT (0.5 mg/mL) was incubated with cells at 37° C. for 3 hours. Supernatant was removed, followed by the addition of dimethyl DMSO (100 μl). After incubation for 30 minutes at 37° C., absorbance was read at 570 nm on a microplate reader.

## CC(=O)N[C@H](CSC(=S)NCCCCCCc1ccc(N2C(=S)N(c3ccc(C#N)c(C(F)(F)F)c3)C(=O)C2(C)C)cn1)C(=O)O [2-63, N-acetyl-S-((6-(5-(3-(4-cyano-3-(trifluoromethyl)phenyl)-5,5-dimethyl-4-oxo-2-thioxoimidazolidin-1-yl)pyridine-2-yl)hexyl)carbamothioyl)-D-cysteine]
[1]
  polarity/water solubility of 2-63 over 12b: greatly improves
VCaP cells
  IC50: 6.09 µM
C4-2 cells [2]
  relative potency in viability reduction, C4-2 cells: 12b>2-63>PEITC-NAC
FL AR and AR-V7
  FL AR and AR-V7 in time course: time-dependent decline
[3]
  histone H3 acetylation: did not show significant effects
[3]; SFN 15 μM
  α-tubulin acetylation: did not show significant effects
Sp1 and c-Myc
  Sp1 and c-Myc protein level: dose-dependently reduced
AR-V7, Hsp70, HO-1
  AR-V7 expression, 22Rv1 cells: effectively depletes AR-V7
C4-2 cells [4]
  viability reduction of DHT-stimulated C4-2 cells: 70%
RWPE-1 cells
  viability of RWPE-1 cells remaining: Eighty
